Test results published in patent publication US20130171098A1, “Cyclopropyl Fused Indolobenzazepine HCV NS5B Inhibitors” (priority 2006, published 2013).
Where two headings read alike, the source gives them in different places.

Columns and labels:
HCV replicon cells = experiment: HCV replicon FRET / luciferase assay; assay type: cell-based, Hepatitis C virus
Method: The HCV FRET screening assay was performed in 96-well cell culture plates. The FRET peptide (Anaspec, Inc.) (Taliani et al., Anal. Biochem. 1996, 240, 60-67) contains a fluorescence donor, EDANS, near one end of the peptide and an acceptor, DABCYL, near the other end. The fluorescence of the peptide is quenched by […] resonance energy transfer (RET) between the donor and the acceptor, but as the NS3 protease cleaves the peptide the products are released from RET quenching and the fluorescence of the donor becomes apparent. The assay reagent was made as follows: 5× cell Luciferase cell culture lysis reagent from Promega (#E153A) diluted to 1× with dH2O, NaCl added to 150 mM final, the FRET peptide diluted to 20 μM final from a 2 mM stock.
To prepare plates, HCV replicon cells, with or without a Renilla luciferase reporter gene, were trypsinized and plated in a 96-well plate with titrated test compounds added in columns 3 through 12; columns 1 and 2 contained a control compound (HCV control inhibitor), and the bottom row contained cells with DMSO only. The plates were then placed in a CO2 incubator at 37° C.
Subsequent to addition of the test compounds described above (FRET Assay Preparation), at various times the plate was removed and Alamar blue solution (Trek Diagnostics, #00-100) was added to measure cellular toxicity. After reading in a Cytoflour 4000 instrument (PE Biosystems), plates were rinsed with PBS and then used for FRET assay by the addition of 30 ul of the FRET peptide assay reagent described above (FRET Assay Preparation) per well. The plate was then placed into the Cytoflour 4000 instrument which had been set to 340 excite/490 emission, automatic mode for up to 20 cycles and the plate read in a kinetic mode. Typically, the signal to noise using an endpoint analysis after the reads was at least three-fold. Alternatively, after Alamar blue reading, plates were rinsed with PBS, then used for luciferase assay using the Promega Dual-Glo Luciferase Assay System or the Promega EnduRen Live Cell Substrate assay.
Compound analysis was performed by quantification of the relative HCV replicon inhibition and the relative cytotoxicity values. To calculate cytoxicity values, the average Alamar Blue fluorescence signals from the control wells were set as 100% non-toxic. The individual signals in each of the compound test wells were then divided by the average control signal and multiplied by 100% to determine […]. To calculate the HCV replicon inhibition values, an average background value was obtained from the two wells containing the highest amount of HCV control inhibitor at the end of the assay period. These numbers were similar to those obtained from naïve Huh-7 cells. The background numbers were then subtracted from the average signal obtained from the control wells and this number was used as 100% activity. The individual signals in each of the compound test wells were then divided by the averaged control values after background subtraction and multiplied by 100% to determine percent activity. […] The two numbers generated for the compound plate, percent cytoxicity and percent activity, were used to determine compounds of interest for further analysis.

[1] = biological target: T1, HCV NS5B RdRp genotype 1b (Hepatitis C virus genotype 1b, UniProt Q9WMX2); experiment: HCV NS5B RdRp enzyme assay (standard / modified); assay type: biochemical
T1 construct: The protein was expressed with an 18 amino acid C-terminal truncation to enhance the solubility; made in house; host or cells: E. coli BL21(DE3), pET21a vector
T1 sequence (Q9WMX2 2420-2992): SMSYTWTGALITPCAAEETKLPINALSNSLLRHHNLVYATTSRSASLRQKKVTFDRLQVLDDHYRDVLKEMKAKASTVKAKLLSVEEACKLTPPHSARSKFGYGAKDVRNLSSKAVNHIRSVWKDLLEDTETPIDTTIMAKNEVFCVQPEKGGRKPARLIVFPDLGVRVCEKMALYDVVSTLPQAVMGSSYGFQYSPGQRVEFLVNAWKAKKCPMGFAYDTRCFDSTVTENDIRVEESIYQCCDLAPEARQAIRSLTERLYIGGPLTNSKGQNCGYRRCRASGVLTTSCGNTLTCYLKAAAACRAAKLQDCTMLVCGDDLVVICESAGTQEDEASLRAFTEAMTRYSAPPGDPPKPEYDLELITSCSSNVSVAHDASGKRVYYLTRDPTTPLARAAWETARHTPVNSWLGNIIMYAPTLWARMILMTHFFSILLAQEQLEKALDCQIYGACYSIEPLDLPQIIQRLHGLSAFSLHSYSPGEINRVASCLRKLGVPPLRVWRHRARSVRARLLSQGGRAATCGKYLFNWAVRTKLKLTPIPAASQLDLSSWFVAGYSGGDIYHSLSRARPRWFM
Method: HCV NS5B RdRp Cloning, Expression, and Purification.
The cDNA encoding the NS5B protein of HCV, genotype 1b, was cloned into the pET21a expression vector. The protein was expressed with an 18 amino acid C-terminal truncation to enhance the solubility. The E. coli competent cell line BL21(DE3) was used for expression of the protein. Cultures were grown at 37° C. for ˜4 hours until the cultures reached an optical density of 2.0 at 600 nm. The cultures were cooled to 20° C. and induced with 1 mM IPTG. Fresh ampicillin was added to a final concentration of 50 μg/ml and the cells were grown overnight at 20° C.
The lysis buffer consisted of 20 mM Tris-HCl, pH 7.4, 500 mM NaCl, 0.5% triton X-100, 1 mM DTT, 1 mM EDTA, 20% glycerol, 0.5 mg/ml lysozyme, 10 mM MgCl2, 15 ug/ml deoxyribonuclease I, and Complete TM protease inhibitor tablets (Roche). After addition of the lysis buffer, frozen cell pellets were resuspended using a tissue homogenizer. To reduce the viscosity of the sample, aliquots of the lysate were sonicated on ice using a microtip attached to a Branson sonicator. The sonicated lysate was centrifuged at 100,000×g for 1 hr at 4° C. and filtered through a 0.2 μm filter unit (Corning).
The protein was purified using two sequential chromatography steps: Heparin sepharose CL-6B and polyU sepharose 4B (Pharmacia). The chromatography buffers were identical to the lysis buffer but contained no lysozyme, deoxyribonuclease I, MgCl2 or protease inhibitor and the NaCl concentration of the buffer was adjusted according to the requirements for charging the protein onto the column. Each column was eluted with a NaCl gradient which varied in length from 5-50 column volumes depending on the column type. […] The enzyme was aliquoted and stored at −80° C.
Standard HCV NS5B RdRp Enzyme Assay.
HCV RdRp genotype 1b assays were run in a final volume of 60 μl in 96 well plates (Corning 3600). The assay buffer is composed of 20 mM Hepes, pH 7.5, 2.5 mM KCl, 2.5 mM MgCl2, 1 mM DTT, 1.6 U RNAse inhibitor (Promega N2515), 0.01 mg/ml BSA (Sigma B6917), and 2% glycerol. All compounds were serially diluted (3-fold) in DMSO and diluted further in water such that the final concentration of DMSO in the assay was 2%. HCV RdRp genotype 1b enzyme was used at a final concentration of 28 nM. A polyA template was used at 6 nM, and a biotinylated oligo-dT12 primer was used at 180 nM final concentration. Template was obtained commercially (Amersham 27-4110). Biotinylated primer was prepared by Sigma Genosys. 3H-UTP was used at 0.6 μCi (0.29 μM total UTP). Reactions were initiated by the addition of enzyme, incubated at 30° C. for 60 min, and stopped by adding 25 μl of 50 mM EDTA containing SPA beads (4 μg/μl, Amersham RPNQ 0007). Plates were read on a Packard Top Count NXT after >1 hr incubation at room temperature.
Modified HCV NS5B RdRp Enzyme Assay.
A modified enzyme assay was performed essentially as described for the standard enzyme assay except for the following: The biotinylated oligo dT12 primer was precaptured on streptavidin-coated SPA beads by mixing primer and beads in assay buffer and incubating at room temperature for one hour. Unbound primer was removed after centrifugation. The primer-bound beads were resuspended in 20 mM Hepes buffer, pH 7.5 and used in the assay at final concentrations of 20 nM primer and 0.67 μg/μl beads. Order of addition in the assay: enzyme (1.75 nM) was added to diluted compound followed by the addition of a mixture of template (0.36 nM), 3H-UTP (0.6 μCi, 0.29 μM), and primer-bound beads, to initiate the reaction; concentrations given are final. Reactions were allowed to proceed for 4 hours at 30° C.
IC50 values for compounds were determined using seven different [I].

[2] = HCV replicon cells, FRET or luciferase activity
[3] = HCV NS5B RdRp genotype 1b enzyme

| Structure (SMILES) | EC50 (HCV replicon cells; Hepatitis C virus) [nM] | IC50 [1] [nM] | EC50 (HCV replicon cells; [2]) [nM] | IC50 [1, 3] [nM] | also measured |
| --- | --- | --- | --- | --- | --- |
| COc1ccc2c(c1)C1CC1(C(=O)N1CC3CCC(C1)N3C)Cn1c-2c(C2CCCCC2)c2ccc(C(=O)NS(=O)(=O)N(C)C)cc21 (stereo not shown) | 1 to 500 | 1 to 500 | – | – | – |
| CNS(=O)(=O)NC(=O)c1ccc2c(C3CCCCC3)c3n(c2c1)CC1(C(=O)N2C4CCC2CN(C)C4)CC1c1cc(OC)ccc1-3 (stereo not shown) [drawing 48] | – | – | 1 to 500 | 1 to 500 | – |
| COc1ccc2c(c1)C1CC1(C(=O)N1C3CCC1CN(C)C3)Cn1c-2c(C2CCCCC2)c2ccc(C(=O)NS(=O)(=O)N3C[C@@H](C)O[C@@H](C)C3)cc21 (stereo partly shown) [drawing 107] | – | – | 1 to 500 | 1 to 500 | – |
| COc1ccc2c(c1)C1CC1(C(=O)N1CC3CCC(C1)N3)Cn1c-2c(C2CCCCC2)c2ccc(C(=O)NS(=O)(=O)N(C)C)cc21 (stereo not shown) | 1 to 500 | 1 to 500 | – | – | – |
| COc1ccc2c(c1)C1CC1(C(=O)N1C3CCC1CN(C)C3)Cn1c-2c(C2CCCCC2)c2ccc(C(=O)NS(=O)(=O)NC3CC3)cc21 (stereo not shown) [drawing 68] | – | – | 1 to 500 | 1 to 500 | – |
| COc1ccc2c(c1)C1CC1(C(=O)N1C3CCC1CN(CC1CC1)C3)Cn1c-2c(C2CCCCC2)c2ccc(C(=O)NS(=O)(=O)N(C)C)cc21 (stereo not shown) [drawing 65] | – | – | 1 to 500 | 1 to 500 | – |
| COc1ccc2c(c1)C1CC1(C(=O)N1C3CCC1CN(C(C)=O)C3)Cn1c-2c(C2CCCCC2)c2ccc(C(=O)NS(=O)(=O)N(C)C)cc21 (stereo not shown) [drawing 35] | 1 to 500 | 1 to 500 | – | – | – |
| CCN(C)S(=O)(=O)NC(=O)c1ccc2c(C3CCCCC3)c3n(c2c1)CC1(C(=O)N2C4CCC2CN(C)C4)CC1c1cc(OC)ccc1-3 (stereo not shown) [drawing 109] | – | – | 1 to 500 | 1 to 500 | – |
| COc1ccc2c(c1)C1CC1(C(=O)N1C3CCC1CN(C)C3)Cn1c-2c(C2CCCCC2)c2ccc(C(=O)NS(=O)(=O)N(C)C)cc21 (stereo not shown) [drawing 24] | – | – | – | – | EC50 (HCV replicon cells; HCV replicon cells, FRET or luciferase activity, read-out: EC50): 1 to 500 nM; IC50 ([1]; HCV NS5B RdRp genotype 1b enzyme, read-out: IC50): 1 to 500 nM |
| COc1ccc2c(c1)C1CC1(C(=O)N1C3CCC1CN(CC1CC1)C3)Cn1c-2c(C2CCCCC2)c2ccc(C(=O)NS(=O)(=O)N(C)C)cc21 (stereo not shown) [drawing 40] | 1 to 500 | 1 to 500 | – | – | – |
| COc1ccc2c(c1)C1CC1(CN1C3CCC1CN(C)C3)Cn1c-2c(C2CCCCC2)c2ccc(C(=O)NS(=O)(=O)N(C)C)cc21 (stereo not shown) | 1 to 500 | 1 to 500 | – | – | – |
| COc1ccc2c(c1)C1CC1(C(=O)N1C3CCC1CN(C)C3)Cn1c-2c(C2CCCCC2)c2ccc(C(=O)NS(=O)(=O)N3CCC3)cc21 (stereo not shown) [drawing 101] | 1 to 500 | 1 to 500 | – | – | – |
| CNS(=O)(=O)NC(=O)c1ccc2c(C3CCCCC3)c3n(c2c1)CC1(C(=O)N2C4CCC2CN(C)C4)CC1c1cc(OC)ccc1-3 (stereo not shown) [drawing 29] | 1 to 500 | 1 to 500 | – | – | – |
| COc1ccc2c(c1)C1CC1(C(=O)N1C3CCC1CN(c1ccccn1)C3)Cn1c-2c(C2CCCCC2)c2ccc(C(=O)NS(=O)(=O)N(C)C)cc21 (stereo not shown) [drawing 41] | 1 to 500 | 1 to 500 | – | – | – |
| CN1CC2CCC(C1)N2C(=O)C12CC1c1cc(OCc3ccccc3)ccc1-c1c(C3CCCCC3)c3ccc(C(=O)NS(=O)(=O)N(C)C)cc3n1C2 (stereo not shown) [drawing 69] | – | – | 1 to 500 | 1 to 500 | – |
| COc1ccc2c(c1)C1CC1(C(=O)N1C3CCC1CN(C)C3)Cn1c-2c(C2CCCCC2)c2ccc(C(=O)NS(C)(=O)=O)cc21 (stereo not shown) [drawing 102] | – | – | 1 to 500 | 1 to 500 | – |
| COc1ccc2c(c1)C1CC1(C(=O)N1C3CCC1CN(C)C3)Cn1c-2c(C2CCCCC2)c2ccc(C(=O)NS(C)(=O)=O)cc21 (stereo not shown) [drawing 89] | 1 to 500 | 1 to 500 | – | – | – |
| COc1ccc2c(c1)C1CC1(C(=O)N1C3CCC1CN(C)C3)Cn1c-2c(C2CCCCC2)c2ccc(C(=O)NS(=O)(=O)N3CCN(C)CC3)cc21 (stereo not shown) [drawing 54] | – | – | 1 to 500 | 1 to 500 | – |
| CN1CC2CCC(C1)N2C(=O)C12CC1c1cc(O)ccc1-c1c(C3CCCCC3)c3ccc(C(=O)NS(=O)(=O)N(C)C)cc3n1C2 (stereo not shown) [drawing 70] | – | – | 1 to 500 | 1 to 500 | – |
| CCN1CC2CCC(C1)N2C(=O)C12CC1c1cc(OC)ccc1-c1c(C3CCCCC3)c3ccc(C(=O)NS(=O)(=O)N(C)C)cc3n1C2 (stereo not shown) [drawing 61] | – | – | 1 to 500 | 1 to 500 | – |
| COc1ccc2c(c1)C1CC1(C(=O)N1C3CCC1CN(C)C3)Cn1c-2c(C2CCCCC2)c2ccc(C(=O)NS(=O)(=O)N3CCCC3)cc21 (stereo not shown) | 1 to 500 | 1 to 500 | – | – | – |
| CCN(CC)C(=O)N1CC2CCC(C1)N2C(=O)C12CC1c1cc(OC)ccc1-c1c(C3CCCCC3)c3ccc(C(=O)NS(=O)(=O)N4CCN(C)CC4)cc3n1C2 (stereo not shown) [drawing 106] | – | – | 1 to 500 | 1 to 500 | – |
| COc1ccc2c(c1)C1CC1(C(=O)N1C3CCC1CNC3)Cn1c-2c(C2CCCCC2)c2ccc(C(=O)NS(=O)(=O)N(C)C)cc21 (stereo not shown) [drawing 34] | 1 to 500 | 1 to 500 | – | – | – |
| COc1ccc2c(c1)C1CC1(C(=O)N1C3CCC1CN(C)C3)Cn1c-2c(C2CCCCC2)c2ccc(C(=O)NS(=O)(=O)CC(F)F)cc21 (stereo not shown) | 1 to 500 | 1 to 500 | – | – | – |
| CNS(=O)(=O)NC(=O)c1ccc2c(C3CCCCC3)c3n(c2c1)CC1(C(=O)N2[C@@H]4CC[C@H]2CN(C)C4)CC1c1cc(OC)ccc1-3 (stereo partly shown) [drawing 55] | 1 to 500 | 1 to 500 | – | – | – |
| CN1CC2CCC(C1)N2C(=O)C12CC1c1cc(OC(F)F)ccc1-c1c(C3CCCCC3)c3ccc(C(=O)NS(=O)(=O)N(C)C)cc3n1C2 (stereo not shown) [drawing 103] | – | – | 1 to 500 | 1 to 500 | – |
